Assay results: patent US20060018978A1, “Botanical compositions having hypoglycemic, hypolipidemic and antimicrobial activities for maintaining good health in normal person and diabetic patient” (priority 2004, published 2006)

Columns and labels:
[1] = tested on: streptozotocin-induced diabetic rats; experiment: Biochemical analysis of serum in diabetic rats at day 14 after daily feeding; assay type: in vivo, rat; details: day 14, Standard: injected 5 IU/Kg/day, mean ± S.E.M.
[2] = tested on: Pseudomonas aeruginosa ATCC 9721; experiment: Agar Diffusion Test, Ps. aeruginosa; assay type: cell-based; details: mean ± S.E.M
From the text: (§1) The dried plant extract is ground to fine powder and sieved to obtain uniform powder size and used for pharmaceutical preparation. […] (1991) Antibiotics in Laboratory Medicine, 3rd ed. The pathogenic microbes inhibited by the crude water extract of M. coromandelianum are Staphylococcus aureus, and Salmonella typhimurium. […] [table]

[3] = tested on: Salmonella typhimurium ATCC 14028; experiment: Agar Diffusion Test, S. typhimurium; assay type: cell-based; details: mean ± S.E.M
From the text: as §1

[4] = tested on: Staphylococcus aureus ATCC 6538P; experiment: Agar Diffusion Test, S. aureus; assay type: cell-based; details: mean ± S.E.M
From the text: as §1

[5] = tested on: Escherichia coli ATCC 25922; experiment: Agar Diffusion Test, E. coli; assay type: cell-based; details: mean ± S.E.M
From the text: as §1

[6] = tested on: Klebsiella pneumoniae ATCC 10031; experiment: Agar Diffusion Test, K. pneumoniae; assay type: cell-based; details: mean ± S.E.M
From the text: as §1

Insulin
Cholesterol [1]: 225.96 ± 5.51 mg %
Glucose [1]: 409.85 ± 12.52 mg %
Triglycerides [1]: 388.10 ± 61.85 mg %

Gentamicin
Diameter of inhibition zone ([2]; 10 μg/ml): 8.1 ± 0.00 mm
Diameter of inhibition zone ([2]; 20 μg/ml): 12.8 ± 0.14 mm
Diameter of inhibition zone ([3]; 10 μg/ml): 14.28 ± 0.07 mm
Diameter of inhibition zone ([3]; 20 μg/ml): 15.88 ± 0.141 mm
Diameter of inhibition zone ([4]; 10 μg/ml): 10.00 ± 0.00 mm
Diameter of inhibition zone ([4]; 20 μg/ml): 12.77 ± 0.14 mm
Diameter of inhibition zone ([5]; 10 μg/ml): 1.56 ± 0.07 mm
Diameter of inhibition zone ([5]; 20 μg/ml): 3.78 ± 0.07 mm
Diameter of inhibition zone ([6]; 10 μg/ml): 16.9 ± 0.00 mm
Diameter of inhibition zone ([6]; 20 μg/ml): 26.57 ± 0.28 mm
